Converted amounts (≈) assume the structure as drawn.
Legend:
[1] = test system: Gram-positive and Gram-negative bacteria; assay: antibiotic activity (antimicrobial spectrum); type: cell-based; details: comparison in words
Experimental: (§1) The minimum inhibitory concentrations of the compounds of formula (I-a-1) or (I-b-1) in Tables I-1 to I-7 and the known compounds in Table I-8 on the various microorganisms shown in the above tables were measured by an agar dilution assay method using a brain heart infusion agar medium "Difco" (a product of Difco Laboratories Inc.)
(§2) A sample of the test compound was dissolved in sterile distilled water and diluted to prepare a two-fold dilution series of the compound solution. In a petri plate of 9 cm diameter, 1 ml of the compound solution was added to 9 ml of molten sterile heart infusion agar medium (Difco Laboratories Inc.) at about 60° C. to prepare the compound-containing agar plate. An overnight culture of each test organism indicated in the above table which was prepared by stationary cultivation in Trypto-Soy broth (Eiken Chemi. Co., Ltd.) at 35° C. for 18 to 20 hours, was diluted with the Trypto-Soy broth to give approximately 10^8 cells/ml and the diluted inoculum was inoculated onto the compound-containing agar plates. After cultivating the plates at 35° C. for 20 hours, the growth of the organism was observed. The minimum concentration of the compound at which no growth of the microorganism was noted was determined, and defined as the minimum inhibitory concentration of the test compound.

[2] = test system: Staphylococcus aureus Smith; assay: minimum inhibitory concentration, agar dilution assay; type: cell-based; details: agar dilution, 35° C., 20 hours, read-out: minimum inhibitory concentration
Experimental: (§3) The antibiotic activities shown in Tables I-1 to I-8 above were determined in the following manner.
as §1, §2

[3] = test system: Escherichia coli RGN 823; assay: as above; type: cell-based; details: RGN823, agar dilution, 35° C., 20 hours, read-out: minimum inhibitory concentration
Experimental: as §3, §1, §2

[4] = test system: Enterobacter sp. E8; assay: as above; type: cell-based; details: SP.E8, agar dilution, 35° C., 20 hours, read-out: minimum inhibitory concentration
Experimental: as §3, §1, §2

[5] = test system: Enterobacter aerogenes E19; assay: as above; type: cell-based; details: Klebsiella aerogenes, E19; agar dilution, 35° C., 20 hours; read-out: minimum inhibitory concentration
Experimental: as §3, §1, §2

[6] = test system: Proteus mirabilis P6; assay: as above; type: cell-based; details: P6, agar dilution, 35° C., 20 hours, read-out: minimum inhibitory concentration
Experimental: as §3, §1, §2

[7] = test system: Staphylococcus epidermidis; assay: as above; type: cell-based; details: agar dilution, 35° C., 20 hours, read-out: minimum inhibitory concentration
Experimental: as §3, §1, §2

[8] = test system: Serratia marcescens S18; assay: as above; type: cell-based; details: S18, agar dilution, 35° C., 20 hours, read-out: minimum inhibitory concentration
Experimental: as §3, §1, §2

[9] = test system: Escherichia coli K-12; assay: as above; type: cell-based; details: K12, agar dilution, 35° C., 20 hours, read-out: minimum inhibitory concentration
Experimental: as §3, §1, §2

[10] = test system: Staphylococcus aureus FDA 209P; assay: as above; type: cell-based; details: FDA209P, agar dilution, 35° C., 20 hours, read-out: minimum inhibitory concentration
Experimental: as §3, §1, §2

[11] = test system: Comamonas terrigena B-996; assay: as above; type: cell-based; details: B996, agar dilution, 35° C., 20 hours, read-out: minimum inhibitory concentration
Experimental: as §3, §1, §2

[12] = test system: Providencia sp. P8; assay: as above; type: cell-based; details: SP.P8, agar dilution, 35° C., 20 hours, read-out: minimum inhibitory concentration
Experimental: as §3, §1, §2

[13] = test system: Proteus vulgaris GN76; assay: as above; type: cell-based; details: GN76, agar dilution, 35° C., 20 hours, read-out: minimum inhibitory concentration
Experimental: as §3, §1, §2

[14] = test system: Proteus sp. P22; assay: as above; type: cell-based; details: agar dilution, 35° C., 20 hours; read-out: minimum inhibitory concentration
Experimental: as §3, §1, §2

[15] = test system: Klebsiella pneumoniae K-13; assay: as above; type: cell-based; details: K13, agar dilution, 35° C., 20 hours, read-out: minimum inhibitory concentration
Experimental: as §3, §1, §2

[16] = test system: Proteus rettgeri P7; assay: as above; type: cell-based; details: Providencia rettgeri, P7; agar dilution, 35° C., 20 hours; read-out: minimum inhibitory concentration
Experimental: as §3, §1, §2

[17] = test system: Enterobacter cloacae 45; assay: as above; type: cell-based; details: Enterobacter cloacae, 45; agar dilution, 35° C., 20 hours; read-out: minimum inhibitory concentration
Experimental: as §3, §1, §2

[18] = test system: Bacillus subtilis ATCC 6633; assay: as above; type: cell-based; details: ATCC6633, agar dilution, 35° C., 20 hours, read-out: minimum inhibitory concentration
Experimental: as §3, §1, §2

[19] = test system: Sarcina lutea; assay: as above; type: cell-based; details: Micrococcus luteus; agar dilution, 35° C., 20 hours; read-out: minimum inhibitory concentration
Experimental: as §3, §1, §2

[20] = test system: Alcaligenes faecalis A 1; assay: as above; type: cell-based; details: A1, agar dilution, 35° C., 20 hours, read-out: minimum inhibitory concentration
Experimental: as §3, §1, §2

[21] = test system: Citrobacter freundii GN 346; assay: as above; type: cell-based; details: GN346, agar dilution, 35° C., 20 hours, read-out: minimum inhibitory concentration
Experimental: as §3, §1, §2

[22] = test system: Staphylococcus aureus Russell; assay: as above; type: cell-based; details: agar dilution, 35° C., 20 hours, read-out: minimum inhibitory concentration
Experimental: as §3, §1, §2

[23] = test system: Pseudomonas aeruginosa NCTC10490; assay: as above; type: cell-based; details: NCTC10490, agar dilution, 35° C., 20 hours, read-out: minimum inhibitory concentration
Experimental: as §3, §1, §2

[24] = test system: Serratia marcescens T55; assay: as above; type: cell-based; details: T55, agar dilution, 35° C., 20 hours, read-out: minimum inhibitory concentration
Experimental: as §3, §1, §2

[25] = test system: Pseudomonas aeruginosa IFO3445; assay: as above; type: cell-based; details: IFO3445, agar dilution, 35° C., 20 hours, read-out: minimum inhibitory concentration
Experimental: as §3, §1, §2

[26] = test system: Staphylococcus aureus Smith strain; assay: Infection treating test; type: in vivo, Staphylococcus aureus (in ddy male mice); details: sc, 2 h, mice infected intraperitoneally, 5×10^5 cells per mouse, subcutaneous, two hours after infection, read-out: CD50 (the source's name)
Experimental: The in vivo activities of the compounds of formula (I-d) were determined by using mice (five per group, ddy male mice, Shizuoka) which had been intraperitoneally infected with Staphylococcus aureus Smith strain in an amount of 5×10^5 cells per mouse. Two hours after the infection, an injection containing a sodium salt of each of the compounds of formula (I-d) was subcutaneously administered to the mice.

Structure (SMILES)	antibiotic activity (in words) [1]	MIC [2]	MIC [3]	MIC [4]	MIC [5]	MIC [6]	MIC [7]	MIC [8]	MIC [9]	MIC [10]	MIC [11]	MIC [12]	MIC [13]	MIC [14]	MIC [15]	MIC [16]	MIC [17]	MIC [18]	MIC [19]	MIC [20]	also measured
CC(=O)NCCSC1=C(C(=O)O)N2C(=O)C(C(C)O)C2C1 (stereo not shown) [PS-3, 3-(2-acetamidoethylthio)-6-(1-hydroxyethyl)-7-oxo-1-azabicyclo[3.2.0]hept-2-ene-2-carboxylic acid]	better antibiotic activity than cephazolin (CEZ)	–	–	–	–	–	–	–	–	–	–	–	–	–	–	–	–	–	–	–	–
CC(O)C1C(=O)N2C(C(=O)O)=C(Sc3ncccn3)CC12 (stereo not drawn) [Example 64, 5,6-cis-3-(2-Pyrimidinylthio)-6-(1-hydroxyethyl)-7-oxo-1-azabicyclo[3.2.0]hept-2-ene-2-carboxylic acid]	–	0.025 µg/mL (≈ 0.0813 µM)	1.56 µg/mL (≈ 5.08 µM)	0.013 µg/mL (≈ 0.0423 µM)	3.13 µg/mL (≈ 10.2 µM)	0.78 µg/mL (≈ 2.54 µM)	0.025 µg/mL (≈ 0.0813 µM)	12.5 µg/mL (≈ 40.7 µM)	0.1 µg/mL (≈ 0.325 µM)	< 0.007 µg/mL	< 0.007 µg/mL	0.2 µg/mL (≈ 0.651 µM)	6.25 µg/mL (≈ 20.3 µM)	25 µg/mL (≈ 81.3 µM)	25 µg/mL (≈ 81.3 µM)	1.56 µg/mL (≈ 5.08 µM)	12.5 µg/mL (≈ 40.7 µM)	< 0.007 µg/mL	< 0.007 µg/mL	0.05 µg/mL (≈ 0.163 µM)	MIC [21]: 6.25 µg/mL (≈ 20.3 µM); MIC [22]: 0.013 µg/mL (≈ 0.0423 µM); MIC [23]: 25 µg/mL (≈ 81.3 µM); MIC [24]: 12.5 µg/mL (≈ 40.7 µM); MIC [25]: 25 µg/mL (≈ 81.3 µM); ED50 [26]: 0.25 mg/kg
CC(=O)NCCSC1=C(C(=O)O)N2C(=O)C(C(C)C)C2C1 (stereo not shown) [PS-6, 3-(2-acetamidoethylthio)-6-isopropyl-7-oxo-1-azabicyclo[3.2.0]hept-2-ene-2-carboxylic acid, reference compound]	better antibiotic activity than cephazolin (CEZ)	0.2 µg/mL (≈ 0.64 µM)	6.25 µg/mL (≈ 20 µM)	6.25 µg/mL (≈ 20 µM)	25 µg/mL (≈ 80 µM)	12.5 µg/mL (≈ 40 µM)	0.39 µg/mL (≈ 1.25 µM)	25 µg/mL (≈ 80 µM)	6.25 µg/mL (≈ 20 µM)	0.1 µg/mL (≈ 0.32 µM)	0.1 µg/mL (≈ 0.32 µM)	6.25 µg/mL (≈ 20 µM)	12.5 µg/mL (≈ 40 µM)	25 µg/mL (≈ 80 µM)	25 µg/mL (≈ 80 µM)	6.25 µg/mL (≈ 20 µM)	25 µg/mL (≈ 80 µM)	0.78 µg/mL (≈ 2.5 µM)	0.39 µg/mL (≈ 1.25 µM)	1.56 µg/mL (≈ 4.99 µM)	MIC [21]: 12.5 µg/mL (≈ 40 µM); MIC [22]: 0.2 µg/mL (≈ 0.64 µM); MIC [23]: 50 µg/mL (≈ 160 µM); MIC [24]: 50 µg/mL (≈ 160 µM); MIC [25]: 50 µg/mL (≈ 160 µM)
CC(=O)NCCSC1=C(C(=O)O)N2C(=O)C(C(C)O)C2C1 (stereo not shown) [PS-3B . Na, reference compound]	–	–	–	–	–	–	–	–	–	–	–	–	–	–	–	–	–	–	–	–	ED50 [26]: 2 mg/kg
